Reference: publication PMC4632503, “Targeting of Helicobacter pylori thymidylate synthase ThyX by non-mitotoxic hydroxy-naphthoquinones” (Open Biology, 2015)
Where two headings read alike, the source gives them in different places.

How the values were obtained:
H. pylori strain SS1 = test: MIC, broth microdilution test, strain SS1; format: cell-based; settings: Helicobacter pylori, 24 h, read-out: minimal inhibitory concentration (MIC) strain SS1
Method: (§1) The in vitro anti-bacterial activity of 2-OH-1,4-NQ compounds was assessed against the 26695 and SS1 strains of H. pylori. DMSO was used as control in all experiments.
(§2) Disc diffusion tests were performed in triplicate, including a DMSO-only control on each plate, as specified in the electronic supplementary material. Minimal inhibitory concentrations (MICs) were determined using a broth microdilution test in 24-well microtitre plates. For test inocula, an overnight preculture of H. pylori strains 26695 and SS1 was diluted to an OD600 of approximately 0.1 and 0.5 ml of this suspension was transferred to each well. Ten microlitres of twofold serial dilutions of each compound in DMSO, ranging in concentration from 0.625 to 20 µg ml^−1, were added and the covered plates were incubated for 24 h at 37°C with orbital shaking at 140 r.p.m. under microaerophilic conditions. The MIC was determined as the lowest compound concentration resulting in full growth inhibition after 24 h of incubation. All the tests were done in triplicate, including cell-free and DMSO-only controls.

HpThyX [1] = target: T1, HpThyX (Helicobacter pylori, UniProt O26061); test: tritium release (deprotonation) assay of [5-3H]dUMP; format: biochemical; settings: for remaining activity at 100 µM: 20 min, read-out: inhibition against ThyX (% remaining activity relative to control); for dTMP-forming activity: quantitative tritium release assay, 100 μM compound, 10 μM ThyX enzyme
T1 construct: His6; made in house; host or cells: Escherichia coli BL21 (plasmid pGL2, pBAD promoter)
T1 sequence (O26061 whole entry): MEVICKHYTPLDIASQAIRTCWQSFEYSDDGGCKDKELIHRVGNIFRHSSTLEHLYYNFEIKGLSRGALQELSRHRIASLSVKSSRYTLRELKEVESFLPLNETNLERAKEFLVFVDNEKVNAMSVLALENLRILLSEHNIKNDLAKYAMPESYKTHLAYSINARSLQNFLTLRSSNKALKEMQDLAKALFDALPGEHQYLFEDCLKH
Method: (§3) HpThyX activity was assessed by measuring either deprotonation of [5-^3H]dUMP or NAPDH oxidation activities.
In the tritium release (deprotonation) assays, typical reactions contained 10 mM MgCl2, 10% (v/v) glycerol, 500 µM FAD, 2 mM NADPH, 1 mM CH2H4Folate and 10 mM β-mercaptoethanol in 50 mM HEPES (pH 8). Different concentrations of dUMP were also included in the reaction mixtures. The specific activity of tritiated [5-^3H]dUMP (diammonium salt) stock was 15–30 Ci mmol^−1 (Moravek Biochemicals, CA, USA). 2-OH-1,4-NQ derivatives were prepared at 100 µM in 1% DMSO. Reactions were initiated by adding the enzyme (10 µM) and were stopped after 20 min incubation at 37°C.

H. pylori strain 26695 = test: MIC, broth microdilution test, strain 26695; format: cell-based; settings: Helicobacter pylori, 26695, 24 h, read-out: minimal inhibitory concentration (MIC) strain 26695
Method: as §1, §2

HpThyX [2] = target: T1, HpThyX; test: NADPH oxidation assay; format: biochemical; settings: estimated from slope of IC50 versus dUMP concentration
Method: as §3
NADPH oxidation assays were performed at 37°C in 96-well plates (Greiner Bio-One). One hundred microlitres of reaction mixture contained HEPES 50 mM (pH 8.6), NaCl 150 mM, FAD 50 µM, β-mercaptoethanol 1.43 mM, NADPH 500 µM and 10 µM of purified HpThyX. dUMP and 2-OH-1,4-NQ concentrations were varied across 12.5–200 µM and 0.3–100 µM, respectively. Microtitre plates were prepared and transferred to the microplate reader Chameleon II (Hidex). The reactions were started by automatically injecting NADPH into individual wells and ThyX activity was determined by following a decrease in absorbance at 340 nm. A molar extinction coefficient of 6220 M^−1 cm^−1 at 340 nm (ε340) was used to quantify NADPH oxidation. Samples with added DMSO and enzyme-free reactions were used as positive and negative controls, respectively.

AGS cells [3] = test: cytotoxicity, LDH release; format: cell-based, human; settings: for cytotoxicity: 0.78 to 50 μg ml^−1, 24 h
Method: Cytotoxicity of the 2-OH-1,4-NQ derivatives was assessed by measuring lactate dehydrogenase (LDH) release following manufacturer's instructions (Cytotoxicity Detection Kit; Roche Applied Sciences). Briefly, AGS cells (human gastric adenocarcinoma cell line; ATCC Catalog no. CRL-1739TM) were cultured in Ham's F-12 K medium containing 1% of FBS. A total of 3 × 10^4 cells were added per well in a sterile 96-well tissue culture plate. Cells were then treated with different doses of 2-OH-1,4-NQ compounds ranging from 0.78 to 50 μg ml^−1. After a 24 h incubation at 37°C (5% CO2, 90% humidity), the microplates were centrifuged at 250g for 10 min, and the supernatants were carefully removed and transferred into optically clear 96-well microplates (Greiner Bio-One). The dye solution containing iodotetrazolium chloride and sodium lactate was then added to each well to quantify the amount of LDH released into the extracellular medium. LDH was quantified by measuring the A490 using a PowerWave Microplate Spectrophotometer (BioTek).

AGS cells [4] = test: mitotoxicity, resazurin reduction; format: cell-based, human; settings: for mitotoxicity: 0.78 to 50 μg ml^−1, 4 h treatment; for effect on mitochondrial metabolism: low concentrations, resazurin reduction
Method: Mitochondrial toxicity (mitotoxicity) was assessed by measuring resazurin (7-hydroxy-3H-phenoxazin-3-one 10-oxide) reduction by following absorption changes at 570 nm (Mitochondrial Viability Assay; Abcam). Resazurin is an indicator dye that reports on oxidation–reduction reactions taking place in the mitochondria of living cells. AGS cells (≅2.5 × 10^5cells well^−1) cultured in a DMEM galactose/glutamine-supplemented medium were seeded in sterile white-walled 96-well clear-bottom microplates and treated for 4 h with different doses of 2-OH-1,4-NQ compounds ranging from 0.78 to 50 μg ml^−1. Addition of the stain solution was followed by a further 4 h incubation at 37°C (5% CO2, 90% humidity) and A570 was measured. Rotenone, an inhibitor of the mitochondrial respiratory chain complex I, was used as a positive control.

[5] = tolerance of orogastric treatment in infected mice; format: in vivo, NMRI mice; settings: orogastric three times a day, 0.375 mg mouse day^−1, one week; for effect on body or stomach weight: data not shown
Method: NMRI-specific pathogen-free mice (Charles River Laboratories) were orogastrically inoculated with 10^8 CFU of the H. pylori mouse-adapted strain SS1, prepared in 100 μl of peptone broth. Four groups of six to eight mice were infected by H. pylori strain SS1. Earlier experiments have established that after one week, colonization of mice is fully established. A negative control group of five mice was inoculated with peptone broth alone and was not colonized by H. pylori. One week after infection, three groups of mice were treated orogastrically three times a day with 500 µl of either compound 010-C, 010-E or 010-I dissolved in 2% β-cyclodextrin at 0.25 mg ml^−1 (0.375 mg mouse d^−1) during one week. As a control, the fourth group of mice was treated orogastrically three times a day by the same amount of 2% β-cyclodextrin (17.6 mM), the vehicle of the compounds. […] This average size is in agreement with the average size of β-cyclodextrin particles that self-aggregate in water at a concentration of 12 mM [39]. After treatment, viable H. pylori cells, colonizing the mouse stomach, were enumerated by culture of serial dilutions of homogenized tissue on blood agar plates containing bacitracin (200 μg ml^−1) and nalidixic acid (10 μg ml^−1) as in [40].

H. pylori 26695 = test: bactericidal activity, viable counts (CFU) in liquid culture; format: cell-based, Helicobacter pylori; settings: exposure up to 24 h, replating on solid media
Method: To determine the bactericidal activity of C8-C1 against H. pylori, liquid BHI medium was inoculated with an overnight culture of H. pylori 26695 at an initial OD600 of 0.1. C8-C1 or chloramphenicol, used as bacteriostatic control, were added after 4 h of culture time at final concentrations of 5 and 30 µg ml^−1. To determine the viable counts of surviving bacteria (colony forming units, CFU), aliquots of culture were then plated in triplicate on blood agar plates after 3 and 24 h exposure.

[6] = semi-quantitative deprotonation assay, remaining activity, lower = stronger inhibition

| SMILES | MIC (H. pylori strain SS1; full growth inhibition) | MIC (H. pylori strain SS1; value in brackets) | remaining activity at 100 µM (HpThyX [1]; [6]) | MIC (H. pylori strain 26695; full growth inhibition) | MIC (H. pylori strain 26695; value in brackets) | also measured |
| --- | --- | --- | --- | --- | --- | --- |
| O=C1C(O)=C(Cc2ccc(-c3ccc(Cl)cc3)cc2)C(=O)c2ccccc21 [007-B] | 10 µg/mL | 26.7 µM | 60.2% | 10 µg/mL | 26.7 µM | – |
| O=C1C(O)=C(Cc2ccc(OC(F)(F)F)cc2)C(=O)c2ccccc21 [007-C] | 5 µg/mL | – | – | 5 µg/mL | – | remaining activity at 100 µM (HpThyX [1]): 62.5% |
| CC(C)Oc1ccc(CC2=C(O)C(=O)c3ccccc3C2=O)cc1 [007-D] | 20 µg/mL | 62 µM | 45.7% | ≥ 20 µg/mL | ≥ 62 µM | – |
| O=C1C(O)=C(Cc2ccc(F)cc2)C(=O)c2ccccc21 [007-E] | 10 µg/mL | 35.4 µM | 66.3% | 10 µg/mL | 35.4 µM | – |
| O=C1C(O)=C(Cc2ccc(C(F)(F)F)cc2)C(=O)c2ccccc21 [007-F] | 10 µg/mL | 15.1 µM | – | 5 µg/mL | 15.1 µM | remaining activity at 100 µM (HpThyX [1]): 60.6% |
| O=C1C(O)=C(Cc2ccc(Oc3ccccc3)cc2)C(=O)c2ccccc21 [007-G] | 5 µg/mL | 14 µM | 61.8% | 20 µg/mL | 56.2 µM | – |
| O=C1C(O)=C(Cc2ccc(Cl)cc2)C(=O)c2ccccc21 [010-A] | 5 µg/mL | 16.7 µM | 49.5% | 10 µg/mL | 33.5 µM | – |
| O=C1C(O)=C(Cc2cc(F)cc(F)c2)C(=O)c2ccccc21 [010-B] | 10 µg/mL | 33.3 µM | 74.3% | 10 µg/mL | 33.3 µM | – |
| O=C1C(O)=C(Cc2ccco2)C(=O)c2ccccc21 [010-C] | 10 µg/mL | 39.3 µM | 76.4% | 10 µg/mL | 39.3 µM | Ki (HpThyX [2]): 28 nM; cytotoxicity (AGS cells [3]): non-cytotoxic; mitotoxicity (AGS cells [4]): non-mitotoxic; effect on mitochondrial metabolism (AGS cells [4]): activated the mitochondrial metabolism; dTMP-forming activity (HpThyX [1]): suppressed the dTMP-forming activity; tolerance in mice [5]: tolerated in mice; effect on body or stomach weight [5]: None of the aforementioned treatments affected either the body or stomach weight |
| O=C1C(O)=C(Cc2cccs2)C(=O)c2ccccc21 [010-D] | 10 µg/mL | 37 µM | 36.4% | 10 µg/mL | 37 µM | – |
| O=C1C(O)=C(Cc2ccc(F)c(C(F)(F)F)c2)C(=O)c2ccccc21 [010-E] | 5 µg/mL | 14.3 µM | 77.7% | 5 µg/mL | 14.3 µM | cytotoxicity (AGS cells [3]): non-cytotoxic; mitotoxicity (AGS cells [4]): non-mitotoxic; effect on mitochondrial metabolism (AGS cells [4]): activated the mitochondrial metabolism; dTMP-forming activity (HpThyX [1]): suppressed the dTMP-forming activity; tolerance in mice [5]: tolerated in mice; effect on body or stomach weight [5]: None of the aforementioned treatments affected either the body or stomach weight |
| O=C1C(O)=C(Cc2ccc(F)c(Cl)c2)C(=O)c2ccccc21 [010-F] | 5 µg/mL | 15.8 µM | 74.5% | 10 µg/mL | 31.6 µM | – |
| COc1cc(CC2=C(O)C(=O)c3ccccc3C2=O)ccc1O [010-H] | 10 µg/mL | 32.2 µM | 57.8% | 20 µg/mL | 64.5 µM | – |
| O=C1C(O)=C(C=Cc2ccc(F)cc2)C(=O)c2ccccc21 [010-J] | 2.5 µg/mL | 8.49 µM | 49.7% | 2.5 µg/mL | 8.49 µM | – |
| COc1ccc(CC2=C(O)C(=O)c3ccccc3C2=O)cc1OC [010-K] | 10 µg/mL | 30.8 µM | 75.1% | 20 µg/mL | 61.7 µM | – |
| O=C1C(O)=C([C@H]2CC[C@H](c3ccc(Cl)cc3)CC2)C(=O)c2ccccc21 [atovaquone, 2-(trans-4-(4-chlorophenyl)cyclohexyl)-3-hydroxy-1,4-naphthoquinone, reference compound] | – | – | – | – | – | cytotoxic effect (AGS cells [3]; 25 µg ml^−1, 24 h): 48 ± 5%; mitotoxicity (AGS cells [4]): targeted mitochondria |
| O=C(N[C@H](CO)[C@H](O)c1ccc([N+](=O)[O-])cc1)C(Cl)Cl [chloramphenicol, reference compound] | – | – | – | – | – | kind of anti-microbial activity / viable cells after exposure (H. pylori 26695): bacteriostatic |
